Experimental data published in PMC11435058, “Synthesis of New Thiazole-Privileged Chalcones as Tubulin Polymerization Inhibitors with Potential Anticancer Activities” (Pharmaceuticals, 2024).

Tests used:
SNB-19 = assay: cells; settings: Homo sapiens
HL-60(TB) = assay: NCI-60 anticancer screen (SRB; single dose and five doses); settings: Homo sapiens
MOLT-4 = assay: as above; settings: Homo sapiens
HOP-62 = assay: as above; settings: Homo sapiens
NCI-H23 = assay: as above; settings: Homo sapiens
HCC-2998 = assay: as above
SW-620 = assay: as above; settings: Homo sapiens
SF-295 = assay: as above; settings: Homo sapiens
SF-539 = assay: as above; settings: Homo sapiens
MALME-3M = assay: as above; settings: Homo sapiens
M14 = assay: as above; settings: Homo sapiens
MDA-MB-435 = assay: as above; settings: Homo sapiens
SK-MEL-28 = assay: as above; settings: Homo sapiens
SK-MEL-5 = assay: as above; settings: Homo sapiens
UACC-257 = assay: as above; settings: Homo sapiens
OVCAR-4 = assay: as above; settings: Homo sapiens
SK-OV-3 = assay: as above; settings: Homo sapiens
786-0 = assay: as above; settings: Homo sapiens
A498 = assay: as above; settings: Homo sapiens
RXF 393 = assay: as above; settings: Homo sapiens
SN12C = assay: as above; settings: Homo sapiens
TK-10 = assay: as above; settings: Homo sapiens
PC-3 = assay: as above; settings: Homo sapiens
DU-145 = assay: as above; settings: Homo sapiens
MDA-MB-231/ATCC = assay: as above; settings: Homo sapiens
BT-549 = assay: as above; settings: Homo sapiens
T-47D = assay: as above; settings: Homo sapiens, T47D
CCRF-CEM = assay: NCI-60 anticancer screen (SRB; single dose 10 μM and five doses); settings: Homo sapiens
[1] = 48 h, read-out: Growth Percentage

Cc1[nH]c(=S)sc1C(=O)/C=C/c1cccc([N+](=O)[O-])c1 [2h, (E)-1-(4-Methyl-2-Thioxo-2,3-Dihydrothiazol-5-yl)-3-(3-Nitrophenyl)Prop-2-En-1-One]
GI50 (SNB-19; SNB-19): 4.9 µM
IC50 (SNB-19; SNB-19): 11.8 µM
activity at 10 µM (SNB-19; SNB-19, 48 h, read-out: Growth Percentage): 10.4%
CC50 (SNB-19; SNB-19, read-out: LC50): 41.7 µM
IC (TGI) (SNB-19; SNB-19, read-out: TGI): 17 µM
GI50 (HL-60(TB); HL-60): 1.95 µM
IC50 (HL-60(TB); HL-60): 3.31 µM
activity at 10 µM (HL-60(TB); HL-60, 48 h, read-out: Growth Percentage): 5.25%
CC50 (HL-60(TB); HL-60, read-out: LC50): > 100 µM
IC (TGI) (HL-60(TB); HL-60, read-out: TGI): 5.75 µM
GI50 (MOLT-4; MOLT-4): 3.47 µM
IC50 (MOLT-4; MOLT-4): 5.01 µM
activity at 10 µM (MOLT-4; MOLT-4, 48 h, read-out: Growth Percentage): 13.3%
CC50 (MOLT-4; MOLT-4, read-out: LC50): > 100 µM
IC (TGI) (MOLT-4; MOLT-4, read-out: TGI): 30.2 µM
GI50 (HOP-62; HOP-62): 3.98 µM
IC50 (HOP-62; HOP-62): 6.76 µM
activity at 10 µM (HOP-62; HOP-62, 48 h, read-out: Growth Percentage): 0.68%
CC50 (HOP-62; HOP-62, read-out: LC50): 40.7 µM
IC (TGI) (HOP-62; HOP-62, read-out: TGI): 12.3 µM
GI50 (NCI-H23; NCI-H23): 5.37 µM
IC50 (NCI-H23; NCI-H23): 10 µM
activity at 10 µM (NCI-H23; NCI-H23, 48 h, read-out: Growth Percentage): -72.8%
CC50 (NCI-H23; NCI-H23, read-out: LC50): 45.7 µM
IC (TGI) (NCI-H23; NCI-H23, read-out: TGI): 18.2 µM
GI50 (HCC-2998; Homo sapiens, HCC 2998): 2 µM
IC50 (HCC-2998; Homo sapiens, HCC 2998): 3.63 µM
activity at 10 µM (HCC-2998; Homo sapiens, HCC 2998, 48 h, read-out: Growth Percentage): -86.7%
CC50 (HCC-2998; Homo sapiens, HCC 2998, read-out: LC50): 11.8 µM
TGI (HCC-2998; five-dose, Colon Cancer HCC-2998): 4.57 µM
GI50 (SW-620; SW-620): 3.39 µM
IC50 (SW-620; SW-620): 4.07 µM
activity at 10 µM (SW-620; SW-620, 48 h, read-out: Growth Percentage): -37.8%
CC50 (SW-620; SW-620, read-out: LC50): 45.7 µM
IC (TGI) (SW-620; SW-620, read-out: TGI): 11 µM
GI50 (SF-295; SF-295): 3.63 µM
IC50 (SF-295; SF-295): 8.71 µM
activity at 10 µM (SF-295; SF-295, 48 h, read-out: Growth Percentage): 4.14%
CC50 (SF-295; SF-295, read-out: LC50): 39.8 µM
IC (TGI) (SF-295; SF-295, read-out: TGI): 14.8 µM
GI50 (SF-539; SF-539): 2.19 µM
IC50 (SF-539; SF-539): 3.98 µM
activity at 10 µM (SF-539; SF-539, 48 h, read-out: Growth Percentage): -85.9%
CC50 (SF-539; SF-539, read-out: LC50): 12.9 µM
IC (TGI) (SF-539; SF-539, read-out: TGI): 4.9 µM
GI50 (MALME-3M): 12.3 µM
IC50 (MALME-3M): 24.6 µM
activity at 10 µM (MALME-3M; [1]): -42.9%
CC50 (MALME-3M; read-out: LC50): 55 µM
IC (TGI) (MALME-3M; read-out: TGI): 26.3 µM
GI50 (M14; M14): 7.08 µM
IC50 (M14; M14): 11.8 µM
activity at 10 µM (M14; M14, 48 h, read-out: Growth Percentage): 1.86%
CC50 (M14; M14, read-out: LC50): 83.2 µM
IC (TGI) (M14; M14, read-out: TGI): 25.7 µM
GI50 (MDA-MB-435; MDA-MB-435): 4.57 µM
IC50 (MDA-MB-435; MDA-MB-435): 7.41 µM
activity at 10 µM (MDA-MB-435; MDA-MB-435, 48 h, read-out: Growth Percentage): -37%
CC50 (MDA-MB-435; MDA-MB-435, read-out: LC50): 44.7 µM
IC (TGI) (MDA-MB-435; MDA-MB-435, read-out: TGI): 17 µM
GI50 (SK-MEL-28; SK-MEL-28): 5.5 µM
IC50 (SK-MEL-28; SK-MEL-28): 13.2 µM
activity at 10 µM (SK-MEL-28; SK-MEL-28, 48 h, read-out: Growth Percentage): -47%
CC50 (SK-MEL-28; SK-MEL-28, read-out: LC50): 44.7 µM
IC (TGI) (SK-MEL-28; SK-MEL-28, read-out: TGI): 18.2 µM
GI50 (SK-MEL-5; SK-MEL-5): 13.2 µM
IC50 (SK-MEL-5; SK-MEL-5): 22.9 µM
activity at 10 µM (SK-MEL-5; SK-MEL-5, 48 h, read-out: Growth Percentage): -68.8%
CC50 (SK-MEL-5; SK-MEL-5, read-out: LC50): 51.3 µM
IC (TGI) (SK-MEL-5; SK-MEL-5, read-out: TGI): 26.3 µM
GI50 (UACC-257; UACC-257): 3.39 µM
IC50 (UACC-257; UACC-257): 10 µM
activity at 10 µM (UACC-257; UACC-257, 48 h, read-out: Growth Percentage): 9.4%
CC50 (UACC-257; UACC-257, read-out: LC50): 38 µM
IC (TGI) (UACC-257; UACC-257, read-out: TGI): 13.5 µM
GI50 (OVCAR-4; OVCAR-4): 11 µM
IC50 (OVCAR-4; OVCAR-4): 20.4 µM
activity at 10 µM (OVCAR-4; OVCAR-4, 48 h, read-out: Growth Percentage): 13.1%
CC50 (OVCAR-4; OVCAR-4, read-out: LC50): 51.3 µM
IC (TGI) (OVCAR-4; OVCAR-4, read-out: TGI): 24 µM
GI50 (SK-OV-3; SK-OV-3): 5.89 µM
IC50 (SK-OV-3; SK-OV-3): 15.1 µM
activity at 10 µM (SK-OV-3; SK-OV-3, 48 h, read-out: Growth Percentage): 44.6%
CC50 (SK-OV-3; SK-OV-3, read-out: LC50): 45.7 µM
IC (TGI) (SK-OV-3; SK-OV-3, read-out: TGI): 18.6 µM
GI50 (786-0; 786-0): 3.98 µM
IC50 (786-0; 786-0): 6.31 µM
activity at 10 µM (786-0; 786-0, 48 h, read-out: Growth Percentage): -10.8%
CC50 (786-0; 786-0, read-out: LC50): 50.1 µM
IC (TGI) (786-0; 786-0, read-out: TGI): 15.8 µM
GI50 (A498; A498): 14.8 µM
IC50 (A498; A498): 29.5 µM
CC50 (A498; A498, read-out: LC50): 55 µM
IC (TGI) (A498; A498, read-out: TGI): 28.2 µM
GI50 (RXF 393; RXF 393): 10.2 µM
IC50 (RXF 393; RXF 393): 24.6 µM
activity at 10 µM (RXF 393; RXF 393, 48 h, read-out: Growth Percentage): -91.9%
CC50 (RXF 393; RXF 393, read-out: LC50): 47.9 µM
IC (TGI) (RXF 393; RXF 393, read-out: TGI): 22.4 µM
GI50 (SN12C): 2.69 µM
IC50 (SN12C): 4.37 µM
activity at 10 µM (SN12C; [1]): -25.6%
CC50 (SN12C; read-out: LC50): 33.1 µM
IC (TGI) (SN12C; read-out: TGI): 10.2 µM
GI50 (TK-10; TK-10): 11.2 µM
IC50 (TK-10; TK-10): 22.9 µM
CC50 (TK-10; TK-10, read-out: LC50): 50.1 µM
IC (TGI) (TK-10; TK-10, read-out: TGI): 23.4 µM
GI50 (PC-3; PC-3): 4.07 µM
IC50 (PC-3; PC-3): 8.13 µM
activity at 10 µM (PC-3; PC-3, 48 h, read-out: Growth Percentage): 8.43%
CC50 (PC-3; PC-3, read-out: LC50): 56.2 µM
IC (TGI) (PC-3; PC-3, read-out: TGI): 17.8 µM
GI50 (DU-145; DU-145): 2.4 µM
IC50 (DU-145; DU-145): 3.89 µM
activity at 10 µM (DU-145; DU-145, 48 h, read-out: Growth Percentage): 8.55%
CC50 (DU-145; DU-145, read-out: LC50): 23.4 µM
IC (TGI) (DU-145; DU-145, read-out: TGI): 6.17 µM
GI50 (MDA-MB-231/ATCC; MDA-MB-231): 5.25 µM
IC50 (MDA-MB-231/ATCC; MDA-MB-231): 16.2 µM
activity at 10 µM (MDA-MB-231/ATCC; MDA-MB-231, 48 h, read-out: Growth Percentage): -17.6%
CC50 (MDA-MB-231/ATCC; MDA-MB-231, read-out: LC50): 44.7 µM
IC (TGI) (MDA-MB-231/ATCC; MDA-MB-231, read-out: TGI): 17.8 µM
GI50 (BT-549; BT-549): 3.8 µM
IC50 (BT-549; BT-549): 13.5 µM
activity at 10 µM (BT-549; BT-549, 48 h, read-out: Growth Percentage): -14%
CC50 (BT-549; BT-549, read-out: LC50): 43.6 µM
IC (TGI) (BT-549; BT-549, read-out: TGI): 14.8 µM
GI50 (T-47D): 2 µM
IC50 (T-47D): 4.9 µM
activity at 10 µM (T-47D; [1]): -56.6%
CC50 (T-47D; read-out: LC50): 66.1 µM
IC (TGI) (T-47D; read-out: TGI): 7.08 µM
GI50 (CCRF-CEM): 2.14 µM
activity at 10 µM (CCRF-CEM; [1]): 13.8%
IC50 (CCRF-CEM; five-dose, Leukemia CCRF-CEM): 3.39 µM
CC50 (CCRF-CEM; read-out: LC50): > 100 µM
IC (TGI) (CCRF-CEM; read-out: TGI): 6.61 µM
